Patent US7718614B2 (Kurume University, priority 2003, dated 2010)
Values joined by “and” are separate entries in the source; they are usually repeats but may differ in a detail not shown here. Identical values can stand only once. “Also recorded” adds a separate entry of the source.

Experiments:
[1] = test system: peptide-specific CTL precursors in PBMCs; assay: Peptide-specific CTL precursor assay (IFN-γ production of peptide-stimulated PBMCs), Example 1; assay type: cell-based, human; design: key to Cellular response to peptide during the combination therapy, 12th / Cellular response to peptide during the combination therapy, 6th / Cellular response to peptide during the combination therapy, Pre: Ar: p* ≦ 0.1 and 500 ≦ net**; A: p ≦ 0.05 and 50 ≦ net; B: p ≦ 0.05 and 25 ≦ net < 50; C: 0.05 < p < 0.1 and 50 ≦ net; AAAA: all four wells of quadruplicate assay were positive; AAA: three wells of quadruplicate assay were positive; AA: two wells of quadruplicate assay were positive; conditions: PBMCs of the individual case; for Cellular response to peptide during the combination therapy, 6th: after 6th vaccination; for Cellular response to peptide during the combination therapy, Pre: before combination therapy, grade of each positive well of quadruplicate IFN-γ assay; for Cellular response to peptide during the combination therapy, 18th: after 18th vaccination; for Cellular response to peptide during the combination therapy, 12th: after 12th vaccination;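 for all read-outs here: PBMCs cultured with each peptide at 10 µM, restimulated at 20 µM every 3 days up to 12 days, then 18 hr with peptide-pulsed target cells, IFN-γ by ELISA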
Procedure: Before the first vaccination and 7 days after every 6th vaccination, 30 ml of peripheral blood was obtained, and PBMCs were isolated by means of Ficoll-Conray density gradient centrifugation. Peptide-specific CTL precursors in PBMCs were detected using a previously reported culture method [24]. Briefly, PBMCs (1×10^5 cells/well) were incubated with 10 μM of each peptide in U-bottom-type 96-well microculture plates (Nunc, Roskilde, Denmark) in 200 μl of culture medium. The culture medium contained 45% RPMI-1640 medium, 45% AIM-V™ medium (Invitrogen Corp., Carlsbad, Calif.), 10% FCS, 100 U/ml of interleukin-2 (IL-2) and 0.1 mM MEM nonessential amino acid solution (Invitrogen Corp.). Half of the medium was removed and replaced with the new medium containing a corresponding peptide (20 μM) every 3 days for up to 12 days. […] The target cells (C1R-A2402 or T2, 1×10^4/well) were pulsed with each peptide (10 μM) for 2 hr, and then effector cells (1×10^5/well) were added to each well with the final volume of 200 μl. After incubation for 18 hr, the supernatants (100 μl) were collected, and the amounts of IFN-γ were measured using an enzyme-linked immuno-sorbent assay (ELISA) (limit of sensitivity: 10 pg/ml). All experiments were performed in the four different wells with duplicate assays. […] Peptides were chosen based upon evaluation of all 4 wells by the order shown above.
Peptide-specific CTL precursors in PBMCs were detected using a previously reported culture method [24], while an ELISA was used to detect the serum IgG levels specific for the peptides administrated, as reported previously [13-15]. […] Namely, PBMCs were harvested every 2 weeks and were cultured (10^4 cells/well) for 2 days in triplicate assays with 10 μl M of phytohemagglutinin (PHA), 10 ng/ml of Epstein-Bar virus (EBV)-derived peptide with HLA-A24 or -A2 binding motif, and 10 ng/ml of two different peptides under vaccination. After 2 days in culture, the amounts of IFN-γ in cell free supernatants were measured in triplicate assays, and viable cell numbers were also counted. To avoid biases in each assay, all the PBMCs were once cryopreserved and the four different PBMCs (two from healthy donors, one from patients PBMCs harvested 2 weeks before the latest vaccination, and one from the latest vaccination) were thawed at the same time in the morning of the experiment. The PBMCs from healthy donors were from the same donors throughout the series of immunological monitoring. Responses (IFN-γ production) to PHA, EBV-peptide, and the vaccinated peptides were considered to be mediated by resting T cells, memory T cells, and activated T cells, respectively.

peptide-specific IgG = assay: ELISA of serum IgG specific for the administered peptides, Example 1; assay type: in vivo, human; design: key: −: absent; +: present, low titer; ++: present, high titer; conditions: serum of the individual case; for Anti-peptide IgG during the combination therapy, 6th: after 6th vaccination; for Anti-peptide IgG during the combination therapy, 12th: after 12th vaccination; for Anti-peptide IgG during the combination therapy, 18th: after 18th vaccination; for Anti-peptide IgG during the combination therapy, Pre: before combination therapy

Sequence: DLLSHAFFAI [ppMAPkkk432-440]
- Cellular response to peptide during the combination therapy, 6th [1]: C (0.05 < p < 0.1 and 50 ≦ net); also recorded: A (p ≦ 0.05 and 50 ≦ net)
- Cellular response to peptide during the combination therapy, Pre [1]: ArA and A (p ≦ 0.05 and 50 ≦ net)
- Anti-peptide IgG during the combination therapy, 6th (peptide-specific IgG): ++ and − (2×) and +
- Anti-peptide IgG during the combination therapy, 12th (peptide-specific IgG): ++ and + (2×)
- Anti-peptide IgG during the combination therapy, 18th (peptide-specific IgG): +
- Anti-peptide IgG during the combination therapy, Pre (peptide-specific IgG): + and − (3×)

Sequence: SYTRLFLIL [SART 2899-907]
- Cellular response to peptide during the combination therapy, 18th [1]: A (p ≦ 0.05 and 50 ≦ net)
- Cellular response to peptide during the combination therapy, Pre [1]: A (p ≦ 0.05 and 50 ≦ net)
- Anti-peptide IgG during the combination therapy, 6th (peptide-specific IgG): −
- Anti-peptide IgG during the combination therapy, 12th (peptide-specific IgG): −
- Anti-peptide IgG during the combination therapy, 18th (peptide-specific IgG): −
- Anti-peptide IgG during the combination therapy, Pre (peptide-specific IgG): −

Sequence: VLEGMEVV [CypB172-179]
- Cellular response to peptide during the combination therapy, 12th [1]: A (p ≦ 0.05 and 50 ≦ net)
- Cellular response to peptide during the combination therapy, 18th [1]: B (p ≦ 0.05 and 25 ≦ net < 50); also recorded: A (p ≦ 0.05 and 50 ≦ net)
- Cellular response to peptide during the combination therapy, Pre [1]: A (p ≦ 0.05 and 50 ≦ net)
- Anti-peptide IgG during the combination therapy, 6th (peptide-specific IgG): +
- Anti-peptide IgG during the combination therapy, 12th (peptide-specific IgG): +
- Anti-peptide IgG during the combination therapy, 18th (peptide-specific IgG): +
- Anti-peptide IgG during the combination therapy, Pre (peptide-specific IgG): − (2×) and +

Sequence: ILGELREKV [WHSC2141-]
- Anti-peptide IgG during the combination therapy, 6th (peptide-specific IgG): −
- Anti-peptide IgG during the combination therapy, 12th (peptide-specific IgG): −
- Anti-peptide IgG during the combination therapy, Pre (peptide-specific IgG): −

Sequence: RLQEWCSVI [UBE2V43-51]
- Cellular response to peptide during the combination therapy, 6th [1]: ACC and AA
- Cellular response to peptide during the combination therapy, 12th [1]: ArArArA; also recorded: A (p ≦ 0.05 and 50 ≦ net); also recorded: C (0.05 < p < 0.1 and 50 ≦ net)
- Cellular response to peptide during the combination therapy, Pre [1]: AAA and AAAB and ArA
- Anti-peptide IgG during the combination therapy, 6th (peptide-specific IgG): ++ (3×) and +
- Anti-peptide IgG during the combination therapy, 12th (peptide-specific IgG): ++
- Anti-peptide IgG during the combination therapy, Pre (peptide-specific IgG): ++ and − (2×) and +

Sequence: KLKHYGPGWV [CypB129-138]
- Cellular response to peptide during the combination therapy, 6th [1]: A (p ≦ 0.05 and 50 ≦ net)
- Cellular response to peptide during the combination therapy, Pre [1]: A (p ≦ 0.05 and 50 ≦ net)
- Anti-peptide IgG during the combination therapy, 6th (peptide-specific IgG): −
- Anti-peptide IgG during the combination therapy, 12th (peptide-specific IgG): − and +
- Anti-peptide IgG during the combination therapy, Pre (peptide-specific IgG): −

Sequence: RLAEYQAYI [SART 3309-317]
- Cellular response to peptide during the combination therapy, 6th [1]: Ar (p* ≦ 0.1 and 500 ≦ net**)
- Cellular response to peptide during the combination therapy, 12th [1]: Ar (p* ≦ 0.1 and 500 ≦ net**)
- Cellular response to peptide during the combination therapy, 18th [1]: ArAC
- Cellular response to peptide during the combination therapy, Pre [1]: A (p ≦ 0.05 and 50 ≦ net)
- Anti-peptide IgG during the combination therapy, 6th (peptide-specific IgG): −
- Anti-peptide IgG during the combination therapy, 12th (peptide-specific IgG): −
- Anti-peptide IgG during the combination therapy, 18th (peptide-specific IgG): +
- Anti-peptide IgG during the combination therapy, Pre (peptide-specific IgG): −

Sequence: GLLFLHTRTI [ppMAPkkk294-302]
- Cellular response to peptide during the combination therapy, 6th [1]: C (0.05 < p < 0.1 and 50 ≦ net)
- Cellular response to peptide during the combination therapy, 12th [1]: C (0.05 < p < 0.1 and 50 ≦ net)
- Cellular response to peptide during the combination therapy, 18th [1]: ArArAA
- Cellular response to peptide during the combination therapy, Pre [1]: A (p ≦ 0.05 and 50 ≦ net)
- Anti-peptide IgG during the combination therapy, 6th (peptide-specific IgG): + and − (2×) and ++
- Anti-peptide IgG during the combination therapy, 12th (peptide-specific IgG): + and − and ++
- Anti-peptide IgG during the combination therapy, 18th (peptide-specific IgG): + and −
- Anti-peptide IgG during the combination therapy, Pre (peptide-specific IgG): − (3×) and +

Sequence: DVWSFGILL [lck422-430]
- Cellular response to peptide during the combination therapy, 6th [1]: C (0.05 < p < 0.1 and 50 ≦ net) and A (p ≦ 0.05 and AAA
- Cellular response to peptide during the combination therapy, 12th [1]: C (0.05 < p < 0.1 and 50 ≦ net)
- Cellular response to peptide during the combination therapy, 18th [1]: C (0.05 < p < 0.1 and 50 ≦ net); also recorded: ArAAA
- Cellular response to peptide during the combination therapy, Pre [1]: A (p ≦ 0.05 and 50 ≦ net); also recorded: Ar (p* ≦ 0.1 and 500 ≦ net**); also recorded: C (0.05 < p < 0.1 and 50 ≦ net)
- Anti-peptide IgG during the combination therapy, 6th (peptide-specific IgG): + (2×) and − (4×)
- Anti-peptide IgG during the combination therapy, 12th (peptide-specific IgG): + (2×) and − (3×)
- Anti-peptide IgG during the combination therapy, 18th (peptide-specific IgG): −
- Anti-peptide IgG during the combination therapy, Pre (peptide-specific IgG): − (5×) and +

Sequence: ASLDSDPWV [WHSC2103-111]
- Anti-peptide IgG during the combination therapy, 6th (peptide-specific IgG): −
- Anti-peptide IgG during the combination therapy, Pre (peptide-specific IgG): −
